The record followed here is patent US7947470B2, “Polynucleotides encoding hOCTN1 polypeptide” (Chugai Seiyaku Kabushiki Kaisha, priority 1997, dated 2011).

Starred links: 1 amine or outer side, 2 acyl side, 3 side chain; linkers in the order of their positions; H or OH if unused. Positions of bridges follow the written chain, without caps; N, C: chain ends. Non-standard residues stand in square brackets, D forms with d. Residues, ends and D or L forms follow the SMILES beside them. Chains are numbered I, II in the order given. Actinocin(9to1) = Cc1c2oc3c(C)ccc(C(=O)[*:1])c3nc-2c(C(=O)[*:2])c(N)c1=O; NMeV = CN[C@H](C(=O)O)C(C)C; Sar = CNCC(=O)O

Assay type in all cases: cell-based
For assay [1], the target named is T1, human OCTN1 (Homo sapiens, UniProt Q9H015, I306T/L503F).
T1 construct: cDNA containing the entire ORF which was cleaved out with SmaI and EcoRI was integrated; expressed in transfected cells; host or cells: Xenopus oocytes injected with 15 ng cRNA transcribed in vitro from pcDNA3/OCTN1
T1 sequence (Q9H015 1-551 I306T/L503F): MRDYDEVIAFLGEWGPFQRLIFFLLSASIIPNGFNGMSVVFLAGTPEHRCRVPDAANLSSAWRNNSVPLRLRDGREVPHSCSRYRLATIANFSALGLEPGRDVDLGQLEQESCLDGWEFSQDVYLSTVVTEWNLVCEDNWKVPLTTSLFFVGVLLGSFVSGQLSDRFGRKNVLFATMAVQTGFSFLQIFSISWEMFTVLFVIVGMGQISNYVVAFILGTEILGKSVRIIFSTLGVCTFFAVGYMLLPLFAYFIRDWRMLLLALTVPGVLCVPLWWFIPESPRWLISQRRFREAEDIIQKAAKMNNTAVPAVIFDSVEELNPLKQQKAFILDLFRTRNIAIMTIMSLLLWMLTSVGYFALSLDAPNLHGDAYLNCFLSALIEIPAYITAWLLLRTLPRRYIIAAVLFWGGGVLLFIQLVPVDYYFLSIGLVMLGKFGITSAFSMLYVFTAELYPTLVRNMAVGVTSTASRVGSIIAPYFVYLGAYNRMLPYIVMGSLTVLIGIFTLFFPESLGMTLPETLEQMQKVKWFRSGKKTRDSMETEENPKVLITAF
Nature of the assay: Transport experiment in HEK293 cells transfected with human OCTN1 (pcDNA3/OCTN1). The following applies: for uptake of labeled substrate into human OCTN1-transfected cells: HEK293 cells, compared with Mock or untreated cells, 37° C. As to the method: The human fetal-kidney-derived cell strain, HEK 293 cells were transfected with the plasmid pcDNA3/OCTN1 and pcDNA3 vector containing no insert as a control by the calcium phosphate method. First, the plasmid DNA (10 μg), a Hepes buffer solution (137 mM NaCl, 5 mM KCl, 0.7 mM Na2HPO4, 6 mM Dextrose, and 21 mM Hepes pH 7.1) (1 ml), and 2 M CaCl2 (62.5 μl) were combined and allowed to stand at room temperature for 30 min or more to form calcium phosphate coprecipitates. After cells were plated on 10-cm plates at 1.5×10^6 cells per plate and cultured for 24 h, the calcium phosphate coprecipitates were added thereto, and the cells were further cultured for 24 h. Then, plates were washed with phosphate buffered saline (PBS), and the cells were further cultured for 24 h after the addition of fresh culture medium.
(§1) Transport experiment was performed using cells transfected with the plasmid DNA or untreated cells according to the following procedures. Cells were detached from plates using a rubber policeman, suspended in a transport buffer (containing 125 mM NaCl, 4.8 mM KCl, 5.6 mM (+)-glucose, 1.2 mM CaCl2, 1.2 mM KH2PO4, 1.2 mM MgSO4, and 25 mM Hepes pH 7.4), and pre-incubated for 20 min. An appropriate amount of each labeled substrate ([^14C]TEA (tetraethylammonium) (NEN), [^3H]carnitine (L-carnitine hydrochloride) (Amersham), [^3H]PCG (benzylpenicillin) (Amersham), [^3H]quinidine (ARC), or [^3H]pyrilamine (mepyramine) (Amersham)) was then added to the cell suspension, and the resulting mixture was incubated at 37° C. for a predetermined period of time. Incubated cells were overlaid on a silicon layer prepared by layering a mixture of silicon oil and liquid paraffin (specific gravity 1.022) on a 3 M KCl layer, and separated by centrifugation. Radioactivity of cells was measured to determine the into-the-cell transport activity. In this case, 1×10^6 cells were used as one point of cells. HEK 293 cells were cultured in Dulbecco's MEM containing 10% fetal calf serum (FCS) in an atmosphere of 5% carbon dioxide at 37° C.
First, the transporter capacity was measured in the cells transfected with pcDNA3/OCTN1 and untreated cells using TEA as a substrate (FIG. 5). […] Next, effects of the addition of unlabeled TEA on the labeled substrate uptake in this system (cold inhibition) was examined (FIG. 6). […] Next, to obtain the Km (Michaelis constant) value of human OCTNL to TEA, the uptake of ^14C-TEA with various concentrations was measured (FIG. 7). […] Next, the transport capacity of human OCTN1 for other substrate than TEA was examined (FIG. 8).

For assay [2], the target named is T2, human OCTN2 (Homo sapiens, UniProt O76082).
T2 construct: clones from both fragments were ligated at the PstI site in the overlapping region; expressed in transfected cells
T2 sequence (O76082 1-557): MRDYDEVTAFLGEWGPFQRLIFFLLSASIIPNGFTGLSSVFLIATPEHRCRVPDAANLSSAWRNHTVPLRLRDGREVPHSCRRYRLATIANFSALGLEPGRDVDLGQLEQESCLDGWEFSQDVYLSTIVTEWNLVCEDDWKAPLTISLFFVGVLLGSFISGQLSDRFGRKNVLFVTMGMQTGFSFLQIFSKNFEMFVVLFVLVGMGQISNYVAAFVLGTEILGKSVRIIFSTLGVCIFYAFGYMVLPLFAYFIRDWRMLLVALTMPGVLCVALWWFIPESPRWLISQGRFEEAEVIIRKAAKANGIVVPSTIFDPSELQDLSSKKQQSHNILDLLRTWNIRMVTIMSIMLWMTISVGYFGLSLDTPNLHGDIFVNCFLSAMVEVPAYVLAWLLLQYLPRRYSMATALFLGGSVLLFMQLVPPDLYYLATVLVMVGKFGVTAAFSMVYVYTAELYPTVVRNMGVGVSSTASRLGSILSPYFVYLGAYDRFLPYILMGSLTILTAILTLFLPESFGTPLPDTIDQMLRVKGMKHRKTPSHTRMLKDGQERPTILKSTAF
Nature of the assay: Transport experiment in HEK cells transfected with human OCTN2 (pcDNA3/OCTN2). The following applies: for transport by human OCTN2: HEK cells transfected with pcDNA3/OCTN2, compared with Mock and pcDNA3/OCTN1. As to the method: as §1
HEK cells were transfected with pcDNA3/OCTN2, the pcDNA3 vector containing no insert (Mock), or pcDNA3/OCTN1 by the method described in Example 6 to perform transport experiments.
Next, Na^+ dependence of human OCTN2-mediated carnitine transport was examined using a transport buffer in which Na^+ was replaced with K+(FIG. 12).

Assay [3] addresses T1, human OCTN1. Nature of the assay: Transport experiment using Xenopus oocytes injected with human OCTN1 cRNA. The following applies: 25° C., 1 h, compared with water-injected oocytes. How it is done:
cRNA was synthesized in vitro using T7 RNA polymerase with pcDNA3/OCTN1 as a template. This cRNA was diluted to the concentration of 0.3 ng/nl, and its 50-nl (15 ng) aliquot was injected into a single oocyte. As a control, 50 nl of distilled water was injected. These oocytes were cultured for 3 days, and then used for the transport experiment. After being preincubated in an uptake buffer (0.05% Tween 80, 100 mM NaCl, 2 mM KCl, 1 mM CaCl2, 1 mM MgCl2, and 10 mM Hepes pH 7.4) at 25° C. for 20 min, the oocytes were transferred to the uptake buffer containing 0.5 ml of labeled substrate to initiate the uptake. After the incubation at 25° C. for 1 h, the oocytes were washed in the ice-cold uptake buffer three times to terminate the reaction. The oocytes were solubilized in 5% SDS and mixed with Cleasol I (a cocktail for liquid scintillation counter) (3 ml) to determine the radioactivity. The radioactivity of the uptake buffer which contained the labeled compound at the time of incubation (external solution) (10 μl) was also similarly measured. The ratio of the radioactivity (dpm value) in the oocytes to that (dpm value) in the external solution was used as the uptake activity.

On to `CC1(C)S[C@@H]2[C@H](NC(=O)Cc3ccccc3)C(=O)N2[C@H]1C(=O)O` [PCG, benzylpenicillin], for which the “uptake of labeled substrate into human OCTN1-transfected cells” value in assay [1] is on record as “no significant increase in the uptake”.
As to `CC[N+](CC)(CC)CC` [TEA, tetraethylammonium], the “uptake of labeled substrate into human OCTN1-transfected cells” value in assay [1] is on record as “reaction time-dependent TEA uptake into the human OCTN1-transfectd cells was clearly observed”. For the same compound, the “transport by human OCTN1 (comparison with OCTN2)” value in assay [1] (HEK cells transfected with pcDNA3/OCTN1, Example 8) was “efficiently transported by human OCTN1”. The “maximal velocity, Vmax” value in assay [1] (Lineweaver-Burk plot of net uptake (OCTN1-transfected minus Mock HEK293 cells), 14C-TEA) was 6.68±0.34 nmol/3 min/mg. The Km in assay [1] (Lineweaver-Burk plot of net uptake (OCTN1-transfected minus Mock HEK293 cells), 14C-TEA, read-out: Km (Michaelis constant) value of human OCTN1 to TEA) amounted to 440 ± 40 µM. In assay [1] (human OCTN1-transfected HEK293 cells), the “effect of unlabeled (cold) TEA on labeled substrate uptake (cold inhibition)” value was “decrease in the apparent uptake of the labeled substrate was clearly seen depending on the concentration of cold TEA added”. Further, the “transport by human OCTN2” value in assay [2] was “hardly transported”. In addition, in assay [3], the “uptake activity / transport capacity of human OCTN1 cRNA-injected oocytes” value (“uptake activity / transport capacity” below) is on record as “expresses the transport capacity”.
For the compound `Cc1c2oc3c(C)ccc(C(=O)N[C@@H]4C(=O)N[C@H](C(C)C)C(=O)N5CCC[C@H]5C(=O)N(C)CC(=O)N(C)[C@@H](C(C)C)C(=O)O[C@@H]4C)c3nc-2c(C(=O)N[C@@H]2C(=O)N[C@H](C(C)C)C(=O)N3CCC[C@H]3C(=O)N(C)CC(=O)N(C)[C@@H](C(C)C)C(=O)O[C@@H]2C)c(N)c1=O` [actinomycin D] (I: T[dV]P[Sar][NMeV] / II: T[dV]P[Sar][NMeV]; ester I:1-I:C, II:1-II:C; linker I:N-II:N via Actinocin(9to1)), in assay [3], the “uptake activity / transport capacity” value is “has the activity to transport”.
`C[N+](C)(C)C[C@H](O)CC(=O)[O-].Cl` [carnitine, L-carnitine hydrochloride]: the “uptake of labeled substrate into human OCTN1-transfected cells” value in assay [1] is “significant increase in the uptake”. Further, in assay [2], the “transport by human OCTN2” value is on record as “high capacity to efficiently transport”. Moreover, the “carnitine transport activity of human OCTN2 in the absence of Na+” value in assay [2] (absence of Na+) is “no such activity”. Besides, the “carnitine transport activity of human OCTN2 in the presence of Na+” value in assay [2] (presence of Na+) is given as “time-dependent carnitine transport activity”. The “Na+ dependence of human OCTN2-mediated carnitine transport” value in assay [2] (transport buffer in which Na+ was replaced with K+) is reported as “completely depended on the presence of Na^+”. The “uptake activity / transport capacity” value in assay [3] is given as “expresses the transport capacity”.
In the case of `COc1cccc2c1C(=O)c1c(O)c3c(c(O)c1C2=O)C[C@@](O)(C(C)=O)C[C@@H]3O[C@H]1C[C@H](N)[C@H](O)[C@H](C)O1` [daunomycin], in assay [3], the “uptake activity / transport capacity” value is recorded as “has the activity to transport”.
Regarding `COc1cc([C@@H]2c3cc4c(cc3[C@@H](O[C@@H]3O[C@@H]5CO[C@@H](C)O[C@H]5[C@H](O)[C@H]3O)[C@H]3COC(=O)[C@H]23)OCO4)cc(OC)c1O` [etoposide], the “uptake activity / transport capacity” value in assay [3] is “has the activity to transport”.
For the compound `COc1ccc(CN(CCN(C)C)c2ccccn2)cc1` [pyrilamine], the “uptake of labeled substrate into human OCTN1-transfected cells” value in assay [1] is given as “significant increase in the uptake”. Besides, the “uptake activity / transport capacity” value in assay [3] is recorded as “expresses the transport capacity”.
For `C=C[C@H]1C[N@@]2CC[C@H]1C[C@@H]2[C@@H](O)c1ccnc2ccc(OC)cc12` [quinidine], the “uptake of labeled substrate into human OCTN1-transfected cells” value in assay [1] is given as “significant increase in the uptake”. For the same compound, the “uptake activity / transport capacity” value in assay [3] is reported as “expresses the transport capacity”.
Turning to `CC[C@]1(O)C[C@@H]2CN(CCc3c([nH]c4ccccc34)[C@@](C(=O)OC)(c3cc4c(cc3OC)N(C)[C@H]3[C@@](O)(C(=O)OC)[C@H](OC(C)=O)[C@]5(CC)C=CCN6CC[C@]43[C@@H]65)C2)C1` [vinblastine], the “uptake activity / transport capacity” value in assay [3] was “has the activity to transport”.
